Positions count from the first letter of the chain named.
What was measured:
Assay type in all cases: cell-based
[1] = biological target: T1, K2P2.1 (TREK-1) (Mus musculus, UniProt P97438); assay: Whole-cell patch clamp in transfected HEK293 cells; conditions: 20 μM; for Fold-activation (I activator/I control): whole-cell currents
T1 construct: expressed in transfected cells; host or cells: Xenopus laevis oocytes injected with mRNA (pGEMHE/pMO vector)
T1 sequence (P97438 1-411 isoform P97438-2): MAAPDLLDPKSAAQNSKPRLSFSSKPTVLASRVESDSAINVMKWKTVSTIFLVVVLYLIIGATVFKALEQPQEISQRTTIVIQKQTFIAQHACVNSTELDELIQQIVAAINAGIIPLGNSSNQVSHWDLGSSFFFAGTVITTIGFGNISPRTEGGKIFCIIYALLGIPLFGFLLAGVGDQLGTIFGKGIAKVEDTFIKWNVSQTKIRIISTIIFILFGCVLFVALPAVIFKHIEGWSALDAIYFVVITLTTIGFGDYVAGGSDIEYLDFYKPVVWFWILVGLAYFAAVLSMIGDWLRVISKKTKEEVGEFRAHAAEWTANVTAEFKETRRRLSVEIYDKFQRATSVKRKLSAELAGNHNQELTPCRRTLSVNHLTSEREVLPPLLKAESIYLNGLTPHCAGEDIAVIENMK
Description: (§1) Mouse K2P2.1 (TREK-1) (Genbank accession number: NP_034737.2), mouse K2P10.1 (TREK-2) (NM_001316665.1), mouse K2P4.1 (TRAAK) (NM_008431.3), human K2P4.1 (TRAAK) (NM_033310.2) and mouse K2P18.1(TRESK) (NM_207261.3) were used for this study. Point mutations were introduced by site-directed mutagenesis using custom primers and confirmed by sequencing before use. For studies using Xenopus oocytes, K2P channels were subcloned into a previously reported pGEMHE/pMO vector (46). For expression in HEK293 cells, mouse K2P2.1 (TREK-1) and mutants were expressed from a previously described pIRES2-EGFP vector in HEK293 cells (46,47). K2P2.1 (TREK-1) tandems were constructed by connecting the open reading frames for the individual subunits with a linker encoding the […] (SEQ ID NO: 19) sequence. Tandems used for HEK293 cells included an N-terminal HA tag ([…] (SEQ ID NO: 20)) on the first subunit.
50% confluent cells were co-transfected (in 35-mm diameter wells) with 10-100 ng of the K2P2.1 plasmid and 400 ng of an eGFP plasmid (for visualization) using LipofectAMINE 2000 (Invitrogen) for 24 h, after which the cells were either plated onto coverslips or the media exchanged with fresh media. Cells were plated onto Matrigel coated coverslips (BD Biosciences) 1-2 hours before experiments.
Whole-cell patch-clamp experiments with K2P2.1(TREK-1) and mutants were carried out 24-48 h after transfection. Acquisition and analysis for voltage-clamp experiments were performed using pCLAMP10 and an Axopatch 200B amplifier (Molecular Devices). Current-clamp experiments were acquired using an […] amplifier (Molecular Devices). Pipettes were pulled using a Flaming/Brown micropipette puller (P-97, Sutter Instruments) and flame-polished using a MF-830 microforge (Narishige). Electrode resistance after filling with pipette internal solution ranged from 2 to 5 MΩ. Currents were low-pass filtered at 2 kHz and sampled at 10 kHz. Pipette solution contained the following: 145 mM KCl, 3 mM MgCl2, 5 mM EGTA and 20 mM HEPES (pH 7.2 with KOH). Bath solution contained the following: 145 mM NaCl, 5 mM KCl, 1 mM CaCl2, 3 mM MgCl2 and 20 mM HEPES (pH 7.4 with NaOH). K2P2.1 currents were elicited by a 1 s ramp from −100 to +50 mV from a −80 mV holding potential. Current-clamp recordings were taken with no holding current (I=0). Only K2P2.1(TREK-1)^CG* whole-cell patches with basal currents between […] at 0 mV were used Criteria for A286F K2P2.1(TREK-1)^CG*. ML335 or CAT335 were applied at 20 μM in bath solution and were perfused at 3 ml min^−1 until potentiation stabilized (1-3 min). Data were analyzed using Clampfit 11 and GraphPad Prism 9.

[2] = biological target: T2, CG*-CG* tandem K2P2.1 (TREK-1) (Mus musculus, UniProt P97438, S146C); assay: Single channel recordings from HEK293 cells in cell attached mode; conditions: 20 μM; for Change of open probability (Po activator/Po control): cell-attached, -100 mV
T2 construct: expressed in transfected cells; host or cells: Xenopus laevis oocytes injected with mRNA
T2 sequence (P97438 1-411 isoform P97438-2 S131C) 1: T1 sequence (P97438 1-411 isoform P97438-2) with S131C
T2 sequence (P97438 1-411 isoform P97438-2 S131C) 2: T1 sequence (P97438 1-411 isoform P97438-2) with S131C
Description: as §1
(§2) Single-channel recordings of K2P2.1 (TREK-1) tandem mutants were recorded in cell-attached mode using HEK293 cells 48 h after transfection. Acquisition and analysis was preformed using pCLAMP9 and an Axopatch 200B amplifier. Pipettes were pulled using a laser-based micropipette puller (P-2000, Sutter Instruments). Electrode resistance after filling with pipette internal solution ranged from 6 to 10 MΩ. Pipette solution contained the following: 150 mM KCl, 3.6 mM CaCl2, 10 mM HEPES (pH 7.4 with KOH). The bath solution was identical to the pipette solution. Po was measured from 30-120 s recordings of K2P2.1 (TREK-1) activity holding at −100 mV. Channel conductance of K2P2.1 (TREK-1) tandems were measured from 30-60s recordings at either −100 mV or +50 mV holding potential. Recordings of CAT335 activated channels were obtained by bath applying 20 μM CAT335 for 2 min to the coverslip before transferring to the recording chamber. This was necessary as application of CAT335 via perfusion or through the pipette solution activated slowly (>5 min), making it difficult to measure Po from fully activated channels. BL-1249 was applied at 20 μM in the bath solution via perfusion at 3 mL min^−1 (2-4 min). Data were analyzed using Clampfit 11 and GraphPad Prism 9.

[3] = biological target: T3, CG*-WT tandem K2P2.1 (TREK-1) (Mus musculus, UniProt P97438, S146C); assay: as above; conditions: 20 μM; for Change of open probability (Po activator/Po control): cell-attached, -100 mV
T3 construct: expressed in transfected cells; host or cells: Xenopus laevis oocytes injected with mRNA
T3 sequence (P97438 1-411 isoform P97438-2 S131C): T1 sequence (P97438 1-411 isoform P97438-2) with S131C
T3 sequence (P97438 1-411 isoform P97438-2): T1 sequence (P97438 1-411 isoform P97438-2)
Description: as §1, §2

[4] = biological target: T4, WT-WT tandem K2P2.1 (TREK-1) (Mus musculus, UniProt P97438); assay: as above; conditions: 20 μM; for Change of open probability (Po activator/Po control): cell-attached, -100 mV
T4 construct: expressed in transfected cells; host or cells: Xenopus laevis oocytes injected with mRNA
T4 sequence (P97438 1-411 isoform P97438-2) 1: T1 sequence (P97438 1-411 isoform P97438-2)
T4 sequence (P97438 1-411 isoform P97438-2) 2: T1 sequence (P97438 1-411 isoform P97438-2)
Description: as §1, §2

| Fold-activation (I activator/I control) [1] [fold] | Reversibility of activation on washout [1] | Change of open probability (Po activator/Po control) [2] | Change of open probability (Po activator/Po control) [3] | Change of open probability (Po activator/Po control) [4] | Compound | Effect on single channel conductance ([2]; -100 mV and +50 mV) | Effect on single channel conductance ([3]; -100 mV and +50 mV) | Effect on single channel conductance ([4]; -100 mV and +50 mV) |
| --- | --- | --- | --- | --- | --- | --- | --- | --- |
| 6.2 ± 0.5 |  |  |  |  | CS(=O)(=O)Nc1ccc(C(=O)NCc2ccc(Cl)cc2Cl)cc1 [ML335, reference compound] |  |  |  |
| 1.9 ± 0.2 | fully reversible | 7.8 | 6.3 | no impact on open probability | O=C(NCc1ccc(Cl)cc1Cl)c1ccc(N2C(=O)C=CC2=O)cc1 [CAT335] | minimal to no effect on single channel conductance | minimal to no effect on single channel conductance | minimal to no effect on single channel conductance |
|  |  | large increases in Po | large increases in Po | large increases in Po | c1ccc(-c2nn[nH]n2)c(Nc2cccc3c2CCCC3)c1 [BL-1249, reference compound] |  |  |  |

— US20260098008A1, “COVALENT, CHEMOGENETIC ACTIVATORS FOR K2P POTASSIUM CHANNELS AND USES THEREOF” (THE REGENTS OF THE UNIVERSITY OF CALIFORNIA, priority 2022, published 2026)
